Experiments:
[1] = tested on: biosynthesis of LTB4 by isolated human neutrophils; assay: Inhibition of LTB4 biosynthesis by isolated human neutrophils (PMN); type: cell-based; conditions: A23187 stimulated human PMN; for inhibition at 2.5 µM: Neutrophil, read-out: % Inhibition of LTB4 Synthesis
Procedure: The ability of the compounds of the invention to inhibit the biosynthesis of LTB4 by isolated human neutrophils is evaluated in the following assay, which is carried out in this manner.
A leukocyte enriched blood sample obtained from a healthy donor is procured by leukophoresis using a Haemonetics model 30+ blood processor (Biological Specialties, Inc., Lansdale, Pa.). The top "platelet-rich" layer is removed after a low speed spin (35×g, 15 min, 25° C.) of the sample. The remaining cell suspension is centrigued (400×g, 10 min, 25° C.) to sediment the remaining cells. The supernatant is discarded and the cell pellet resuspended in 120 ml HBSS (without Ca^++ /Mg++). The cell suspension is subjected to ficoll-hypaque sedimentation (Histopaque 1077, 400×g, 30 min, 25° C.). Contaminating erythrocytes are lysed by hypotonic shock (1 min). The cells are then washed once with 40 ml of HBSS and resuspended with HBS S (without Ca^++ /Mg^++) to a concentration of 2.5×10^7 cells/ml for further use. Greater than 95% purity is obtained as assessed by microscopic examination.
One ml of human PMN (2.5×10^7 cells/ml) is incubated with vehicle or drugs (10 μl) for 10 min at 30° C. After preincubation, an equal volume of HBSS (1 ml) containing 2.4 mM CaCl2, 6 μM calcium ionophore A23187 and 50 μCi[^3 H]-acetate is then incubated at 30° C. for 15 minutes. An aliquot (100 μl) of the reaction mixture is taken out and mixed with 900 μl of 15% ethanol. LTB4 is extracted by using solid phase extraction on reverse phase C18 columns to remove excess [^3 H]-acetate and PAF. The C18 column is prewashed once with 2 ml of ethanol and water. The sample aliquot is acidified with 0.1 N HCl to pH3 before applying to the column. The column is then washed with 2 ml of water followed by 2 ml of 15% ethanol and 2 ml of petroleum ether to remove excess labeled acetate. The sample is eluted with 2 ml of ethyl acetate. The collected samples are dried with nitrogen and resuspended in 0.5 ml RIA buffer. The quantity of LTB4 in the sample is obtained from RIA determination.
Data presented are the mean +/- s.d. of the values relative to control A23187 stimulated cells for each experiment assayed in triplicate. Percent inhibition when used is calculated as:
% Inhibition=100-[(×.div.Control )×100]
Dose response analysis is performed by non-linear regression analysis for curve fitting and IC50 determination.

LTB4 = assay: Reverse passive Arthus pleurisy assay, inflammatory mediator release: LTB4; type: in vivo, rat (male Lewis); conditions: standard drugs
Procedure: (§1) The compounds of the invention are further tested in the reverse passive Arthus pleurisy assay to evaluate their effectiveness in inflammatory mediator release and/or the fluid and cellular phases of an inflammatory response.
(§2) This assay is carried out as follows:
A reverse passive Arthus reaction is induced in the pleural cavity of male Lewis rats (150-200 g; fasted overnight prior to use) by the intravenous administration of bovine serum albumin (BSA; 4 mg/0.2 ml) followed 30 minutes later by the injection of rabbit anti-BSA (1 mg/0.2 ml; lyophilized IgG fraction; Organon Teknika, West Chester, Pa.) into the right pleural space under halothane anesthesia. […] Animals are sacrificed at either the time of peak eicosanoid production (i.e. 5 minutes after anti-BSA for immunoreactive TxB2 10 minutes for immunoreactive LTB4, 20 minutes for immunoreactive LTC4) or at the time of peak neutrophil infiltration (4 hours after anti-BSA) by CO2 inhalation. The pleural cavity is then exposed, the fluid exudate removed by gentle vacuum aspiration and the volume of exudate is recorded. For the determination of cellular infiltration, the pleural cavity is rinsed with 3 ml of 0.1% EDTA in sterile saline, and the recovered wash is pooled with the exudate. Cell number is determined on a model ZBI Coulter counter. For determination of eicosanoid production, undiluted pleural exudate is microfuged and the supernatant is extracted with ethanol (8-10 times volume). Extracts are either stored at -20° C., or are evaporated to dryness under a stream of N2 and reconstituted in radioimmunoassay (RIA) buffer.
Eicosanoids are quantitated by RIA according to the procedure specified by the RIA kit manufacturer (Advanced Magnetics, Cambridge, Mass.). Briefly, 100 μl of ^3 H-labeled eicosanoid and 100 μl of specific antibody are sequentially added to 100 μl of extracted pleural exudate in BGG -phosphate buffer which contains 0.01 M phosphate, 0.1% bovine gamma globulin and 0.1% sodium azide at pH 7.0. Antibody-bound eicosanoid is separated from unbound eicosanoid by the addition of 750 μl of dextran (0.4%)-coated charcoal (0.4% Norit A) containing 0.1% sodium azide. The mixture is centrifuged at 2000 RPM at 5° C. for 15 minutes to pellet the charcoal and adsorbed unbound eicosanoid. Antibody-bound labeled eicosanoid is quantitated by counting in a liquid scintillation counter, and is correlated to concentration by a standard curve.
(§3) Inflammatory cells are expressed as 10^6 cells/ml, pleural exudate is expressed as ml of fluid, and the amount of eicosanoids in the pleural cavity is expressed as ng/ml of exudate. Mean ±S.E.M. is determined for each group. Percent inhibition (% I) of cell number, exudate volume and eicosanoid production is calculated for vehicle-treated control groups, and the responses in drug-treated rats are then expressed as the mean % I of the control. […] Exp. Ther., 96, 99-113 (1949).

TxB2 = assay: Reverse passive Arthus pleurisy assay, inflammatory mediator release: TxB2; type: in vivo, rat (male Lewis); conditions: standard drugs; for ED50 TxB2: p.o., inflammatory mediator release, 5 min
Procedure: as §1, §2
A reverse passive Arthus reaction is induced in the pleural cavity of male Lewis rats (150-200 g; fasted overnight prior to use) by the intravenous administration of bovine serum albumin (BSA; 4 mg/0.2 ml) followed 30 minutes later by the injection of rabbit anti-BSA (1 mg/0.2 ml; lyophilized IgG fraction; Organon Teknika, West Chester, Pa.) into the right pleural space under halothane anesthesia. Drugs or vehicle (0.5% Tween-80) control are administered orally in a volume of 1 ml/100 g body weight at 1 hour prior to the anti-BSA. Animals are sacrificed at either the time of peak eicosanoid production (i.e. 5 minutes after anti-BSA for immunoreactive TxB2 10 minutes for immunoreactive LTB4, 20 minutes for immunoreactive LTC4) or at the time of peak neutrophil infiltration (4 hours after anti-BSA) by CO2 inhalation. The pleural cavity is then exposed, the fluid exudate removed by gentle vacuum aspiration and the volume of exudate is recorded. […] Cell number is determined on a model ZBI Coulter counter. […]
Eicosanoids are quantitated by RIA according to the procedure specified by the RIA kit manufacturer (Advanced Magnetics, Cambridge, Mass.). […] Antibody-bound labeled eicosanoid is quantitated by counting in a liquid scintillation counter, and is correlated to concentration by a standard curve.
Inflammatory cells are expressed as 10^6 cells/ml, pleural exudate is expressed as ml of fluid, and the amount of eicosanoids in the pleural cavity is expressed as ng/ml of exudate. Mean ±S.E.M. is determined for each group. Percent inhibition (% I) of cell number, exudate volume and eicosanoid production is calculated for vehicle-treated control groups, and the responses in drug-treated rats are then expressed as the mean % I of the control. […]

[2] = tested on: synthesis of the arachidonic acid cyclooxygenase oxidation product PGE2 (rat PMN); assay: Inhibition of cyclooxygenase product PGE2 synthesis by rat PMN; type: cell-based; conditions: negative values denote a potentiation of cyclooxygenase
Procedure: In this assay, the procedure of Example 41 is carried out as described. However, in order to determine cyclooxygenase activity, the samples are cochromatographed with authentic reference [^3 H]-PGE2.

[3] = tested on: 5-lipoxygenase in human whole blood; assay: Inhibition of 5-lipoxygenase in human whole blood (LTB4); type: cell-based
How it was run: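 Donor whole blood was preincubated with compound (0.1% final DMSO) 10 min at 37° C, then stimulated with 30 μM A23187 for 20 min at 27° C and stopped with EGTA on ice. Plasma LTB4 quantified by RIA or ELISA as ng/10^6 neutrophils; effects given as percent change from control.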

[4] = tested on: fluid and cellular phases of an inflammatory response; assay: Reverse passive Arthus pleurisy assay, pleural inflammation (fluid exudation, cellular influx); type: in vivo, rat (male Lewis); conditions: standard drugs
Procedure: as §1, §2
A reverse passive Arthus reaction is induced in the pleural cavity of male Lewis rats (150-200 g; fasted overnight prior to use) by the intravenous administration of bovine serum albumin (BSA; 4 mg/0.2 ml) followed 30 minutes later by the injection of rabbit anti-BSA (1 mg/0.2 ml; lyophilized IgG fraction; Organon Teknika, West Chester, Pa.) into the right pleural space under halothane anesthesia. Drugs or vehicle (0.5% Tween-80) control are administered orally in a volume of 1 ml/100 g body weight at 1 hour prior to the anti-BSA. Animals are sacrificed at either the time of peak eicosanoid production (i.e. 5 minutes after anti-BSA for immunoreactive TxB2 10 minutes for immunoreactive LTB4, 20 minutes for immunoreactive LTC4) or at the time of peak neutrophil infiltration (4 hours after anti-BSA) by CO2 inhalation. The pleural cavity is then exposed, the fluid exudate removed by gentle vacuum aspiration and the volume of exudate is recorded. For the determination of cellular infiltration, the pleural cavity is rinsed with 3 ml of 0.1% EDTA in sterile saline, and the recovered wash is pooled with the exudate. Cell number is determined on a model ZBI Coulter counter. For determination of eicosanoid production, undiluted pleural exudate is microfuged and the supernatant is extracted with ethanol (8-10 times volume). Extracts are either stored at -20° C., or are evaporated to dryness under a stream of N2 and reconstituted in radioimmunoassay (RIA) buffer.
as §3

CC(c1cc2ccccc2s1)N(O)C(N)=O (stereo not drawn) [A-64,077, reference compound]
inhibition at 2.5 µM [1]: 75.8%

CN=C1CCN(c2cccc(C(F)(F)F)c2)N1 [BW540C, reference compound]
ED50 LTB4 (LTB4; p.o., inflammatory mediator release, 10 min): 30 mg/kg | ED50 TxB2 (TxB2): 19 mg/kg

O=C(O)Cc1cccc(C(=O)c2ccc(OCc3ccc4ccccc4n3)cc2)c1 [Example 3, 3-[4-(2-Quinolinylmethoxy)benzoyl]benzene acetic acid]
inhibition at 0.5 µM ([2]; at 0.5 μM): -8% | inhibition at 10 µM ([2]; at 10 μM): 8%

O=C(O)Cc1ccc(-c2ccc(OCc3nc4ccccc4s3)cc2)cc1 [Example 12, 4'-(Benzothiazolylmethoxyl)-4-diphenylacetic acid]
% Inhibition of LTB4 Synthesis ([1]; at 2.5 μM): Inactive

CN(O)C(=O)Cc1ccc(-c2ccc(OCc3nc4ccccc4s3)cc2)cc1 [Example 13, 4'-(Benzothiazolylmethoxy)-4-diphenyl-N-hydroxy-N-methyl-acetamide]
inhibition at 2.5 µM [1]: 98.9%

CC(C(=O)N(C)O)c1ccc(-c2ccc(OCc3nc4ccccc4n3C)cc2)cc1 (stereo not drawn) [Example 23]
IC50 [3]: 11.9 µM | % Inhibition of LTB4 ([3]; at 25 μM): 32% | inhibition at 2.5 µM [1]: 99%

COc1ccc2cc([C@H](C)C(=O)O)ccc2c1 [Naproxen]
% Inh LTB4 (LTB4; 4 mg/kg p.o.): 0% | % Inh Cellular Influx ([4]; 8 mg/kg p.o.): 29% | ED30 Fluid Exudation ([4]; p.o., pleural inflammation): 3.9 mg/kg | ED50 TxB2 (TxB2): 0.24 mg/kg

C[C@H](C(=O)O)c1ccc2cc(OCc3ccc4ccccc4n3)ccc2c1.NC(CO)(CO)CO [Wy-50,295-A]
% Inh TxB2 (TxB2; 75 mg/kg p.o.): 0%
